# Patent US8933230B2, “Phosphorus-containing group-substituted quinoline, its preparation process, medical composition containing the compounds and application” (priority 2011, dated 2015)
# Legend:
# Experiment in all cases: KinomeScan kinase panel
# Assay type in all cases: binding
# PRKCD = molecular target: T1, PRKCD (Homo sapiens, UniProt Q05655)
# T1 construct: purchased DiscoveRx Corporation (KinomeScan)
# How it was run: (§1)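 The compound was profiled across a 442-kinase KinomeScan binding panel at a fixed concentration of 1000 nM; values reflect inhibitory effect at that one dose.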
# PDGFRB = molecular target: T2, PDGFRB (Homo sapiens, UniProt P09619)
# T2 construct: purchased DiscoveRx Corporation (KinomeScan panel)
# How it was run: as §1
# P38-alpha = molecular target: T3, P38-alpha (Homo sapiens, UniProt Q16539)
# T3 construct: purchased DiscoveRx Corporation (KinomeScan panel)
# How it was run: as §1
# ULK2 = molecular target: T4, ULK2 (Homo sapiens, UniProt Q8IYT8)
# T4 construct: purchased DiscoveRx Corporation (KinomeScan service)
# How it was run: as §1
# AKT3 = molecular target: T5, AKT3 (Homo sapiens, UniProt Q9Y243)
# T5 construct: purchased DiscoveRx Corporation (KinomeScan)
# How it was run: as §1
# EPHB2 = molecular target: T6, EPHB2 (Homo sapiens, UniProt P29323)
# T6 construct: purchased DiscoveRx Corporation (KinomeScan)
# How it was run: as §1
# CDK8 = molecular target: T7, CDK8 (Homo sapiens, UniProt P49336)
# T7 construct: purchased DiscoveRx Corporation (KinomeScan)
# How it was run: as §1
# PIK3CA (H1047Y) = molecular target: T8, PIK3CA (H1047Y) (Homo sapiens, UniProt P42336, H1047Y)
# T8 construct: purchased DiscoveRx Corporation (KinomeScan)
# T8 sequence (P42336 whole entry H1047Y): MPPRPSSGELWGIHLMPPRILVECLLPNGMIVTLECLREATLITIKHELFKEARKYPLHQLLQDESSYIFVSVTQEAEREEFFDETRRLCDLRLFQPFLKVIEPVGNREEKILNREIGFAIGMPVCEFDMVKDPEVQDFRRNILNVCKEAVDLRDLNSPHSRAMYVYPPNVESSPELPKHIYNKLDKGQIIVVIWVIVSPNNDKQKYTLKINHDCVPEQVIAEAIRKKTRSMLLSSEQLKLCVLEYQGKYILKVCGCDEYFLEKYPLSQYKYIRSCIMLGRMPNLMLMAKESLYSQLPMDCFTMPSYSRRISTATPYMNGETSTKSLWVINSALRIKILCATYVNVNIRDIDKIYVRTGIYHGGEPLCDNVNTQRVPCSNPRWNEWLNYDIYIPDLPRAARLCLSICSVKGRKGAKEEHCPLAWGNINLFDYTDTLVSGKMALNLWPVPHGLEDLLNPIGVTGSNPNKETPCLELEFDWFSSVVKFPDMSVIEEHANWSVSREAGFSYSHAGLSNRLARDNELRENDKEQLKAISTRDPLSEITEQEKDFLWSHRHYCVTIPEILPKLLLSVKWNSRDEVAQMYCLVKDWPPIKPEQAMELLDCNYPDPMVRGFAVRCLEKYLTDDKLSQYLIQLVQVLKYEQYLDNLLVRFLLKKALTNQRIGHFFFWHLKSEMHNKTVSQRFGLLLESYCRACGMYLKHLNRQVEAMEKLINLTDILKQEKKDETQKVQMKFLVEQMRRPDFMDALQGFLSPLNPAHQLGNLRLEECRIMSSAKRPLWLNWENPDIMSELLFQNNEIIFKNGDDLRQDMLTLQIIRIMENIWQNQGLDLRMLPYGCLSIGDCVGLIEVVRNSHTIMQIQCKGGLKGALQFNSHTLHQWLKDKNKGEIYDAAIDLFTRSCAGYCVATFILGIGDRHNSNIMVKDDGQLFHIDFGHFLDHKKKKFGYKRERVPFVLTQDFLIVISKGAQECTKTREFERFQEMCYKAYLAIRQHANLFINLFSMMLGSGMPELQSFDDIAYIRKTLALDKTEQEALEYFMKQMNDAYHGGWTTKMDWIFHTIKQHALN
# How it was run: as §1
# PIK3CA(M1043I) = molecular target: T9, PIK3CA(M1043I) (Homo sapiens, UniProt P42336, M1043I)
# T9 construct: purchased DiscoveRx Corporation (KinomeScan)
# T9 sequence (P42336 whole entry M1043I): as the sequence (P42336 whole entry H1047Y) above, with M1043I, Y1047H counted along it
# How it was run: as §1
# CAMK2D = molecular target: T10, CAMK2D (Homo sapiens, UniProt Q13557)
# T10 construct: purchased DiscoveRx Corporation (KinomeScan)
# T10 sequence (Q13557 whole entry): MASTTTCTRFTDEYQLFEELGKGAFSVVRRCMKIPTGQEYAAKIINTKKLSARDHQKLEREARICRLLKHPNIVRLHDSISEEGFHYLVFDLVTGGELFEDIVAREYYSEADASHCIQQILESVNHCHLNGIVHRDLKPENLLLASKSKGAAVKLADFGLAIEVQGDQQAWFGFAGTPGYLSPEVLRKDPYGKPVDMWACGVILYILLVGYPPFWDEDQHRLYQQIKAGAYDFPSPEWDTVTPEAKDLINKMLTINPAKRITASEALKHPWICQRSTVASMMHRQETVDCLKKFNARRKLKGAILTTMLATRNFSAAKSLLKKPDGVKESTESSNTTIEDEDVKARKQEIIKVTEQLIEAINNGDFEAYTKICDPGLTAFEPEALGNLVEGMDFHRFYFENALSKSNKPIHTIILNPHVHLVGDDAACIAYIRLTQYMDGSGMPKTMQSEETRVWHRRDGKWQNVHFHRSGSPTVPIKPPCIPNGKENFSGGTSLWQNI
# How it was run: as §1
# PIP5K2C = molecular target: T11, PIP5K2C (Homo sapiens, UniProt Q8TBX8)
# T11 construct: purchased DiscoveRx Corporation (KinomeScan)
# How it was run: as §1
# [1] = molecular target: T12, RSK1(Kin.Dom.2-C-terminal) (Homo sapiens, UniProt Q15418)
# T12 construct: Kin.Dom.2; purchased DiscoveRx Corporation
# T12 sequence (Q15418 418-675 limits assumed): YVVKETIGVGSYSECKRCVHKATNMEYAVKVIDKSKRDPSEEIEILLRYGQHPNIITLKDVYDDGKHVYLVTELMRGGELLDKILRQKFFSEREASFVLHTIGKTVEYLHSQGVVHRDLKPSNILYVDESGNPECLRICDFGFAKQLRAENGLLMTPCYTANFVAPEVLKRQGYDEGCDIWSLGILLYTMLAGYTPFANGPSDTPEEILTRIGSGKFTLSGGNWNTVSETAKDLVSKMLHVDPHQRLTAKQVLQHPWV
# How it was run: as §1
# PCTK1 = molecular target: T13, PCTK1 (Homo sapiens, UniProt Q00536)
# T13 construct: purchased DiscoveRx Corporation (KinomeScan panel)
# T13 sequence (Q00536 whole entry): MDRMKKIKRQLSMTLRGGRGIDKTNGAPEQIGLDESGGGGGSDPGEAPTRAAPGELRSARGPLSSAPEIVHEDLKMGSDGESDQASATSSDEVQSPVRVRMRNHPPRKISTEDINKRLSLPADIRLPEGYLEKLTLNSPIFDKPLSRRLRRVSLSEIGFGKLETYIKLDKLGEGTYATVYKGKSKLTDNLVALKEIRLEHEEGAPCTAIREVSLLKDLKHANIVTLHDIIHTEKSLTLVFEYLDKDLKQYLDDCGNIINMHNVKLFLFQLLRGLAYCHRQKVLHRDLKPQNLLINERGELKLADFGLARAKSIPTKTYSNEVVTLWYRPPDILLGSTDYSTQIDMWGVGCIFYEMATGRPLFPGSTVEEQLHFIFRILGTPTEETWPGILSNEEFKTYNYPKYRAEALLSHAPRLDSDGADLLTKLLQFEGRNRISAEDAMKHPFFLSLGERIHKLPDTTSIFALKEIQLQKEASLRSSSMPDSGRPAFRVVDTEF
# How it was run: as §1
# IGF1R = molecular target: T14, IGF1R (Homo sapiens, UniProt P08069)
# T14 construct: purchased DiscoveRx Corporation (KinomeScan)
# How it was run: as §1
# [2] = molecular target: T15, RPS6KA5(kin.Dom.2-C-termimal) (Homo sapiens, UniProt O75582)
# T15 construct: kin.Dom.2; purchased DiscoveRx Corporation
# How it was run: as §1
# ERBB3 = molecular target: T16, ERBB3 (Homo sapiens, UniProt P21860)
# T16 construct: purchased DiscoveRx Corporation (KinomeScan)
# How it was run: as §1
# MST2 = molecular target: T17, MST2 (Homo sapiens, UniProt Q13188)
# T17 construct: purchased DiscoveRx Corporation (KinomeScan)
# How it was run: as §1
# P38-gamma = molecular target: T18, P38-gamma (Homo sapiens, UniProt P53778)
# T18 construct: purchased DiscoveRx Corporation (KinomeScan panel)
# T18 sequence (P53778 whole entry): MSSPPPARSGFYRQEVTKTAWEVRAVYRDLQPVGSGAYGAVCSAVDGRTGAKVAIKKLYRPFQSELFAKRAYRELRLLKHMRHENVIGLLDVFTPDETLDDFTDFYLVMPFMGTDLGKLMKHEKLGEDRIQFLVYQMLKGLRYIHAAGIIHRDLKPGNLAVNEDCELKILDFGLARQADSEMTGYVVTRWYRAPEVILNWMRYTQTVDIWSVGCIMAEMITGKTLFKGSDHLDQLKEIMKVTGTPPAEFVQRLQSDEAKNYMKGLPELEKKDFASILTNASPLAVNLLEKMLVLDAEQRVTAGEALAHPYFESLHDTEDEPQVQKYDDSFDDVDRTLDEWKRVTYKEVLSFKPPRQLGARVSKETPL
# How it was run: as §1
# PIM3 = molecular target: T19, PIM3 (Homo sapiens, UniProt Q86V86)
# T19 construct: purchased DiscoveRx Corporation (KinomeScan)
# How it was run: as §1
# ITK = molecular target: T20, ITK (Homo sapiens, UniProt Q08881)
# T20 construct: purchased DiscoveRx Corporation (KinomeScan)
# How it was run: as §1
# ADCK3 = molecular target: T21, ADCK3 (Homo sapiens, UniProt Q8NI60)
# T21 construct: purchased DiscoveRx Corporation (KinomeScan)
# How it was run: as §1
# PIP5K1C = molecular target: T22, PIP5K1C (Homo sapiens, UniProt O60331)
# T22 construct: purchased DiscoveRx Corporation (KinomeScan)
# T22 sequence (O60331 whole entry): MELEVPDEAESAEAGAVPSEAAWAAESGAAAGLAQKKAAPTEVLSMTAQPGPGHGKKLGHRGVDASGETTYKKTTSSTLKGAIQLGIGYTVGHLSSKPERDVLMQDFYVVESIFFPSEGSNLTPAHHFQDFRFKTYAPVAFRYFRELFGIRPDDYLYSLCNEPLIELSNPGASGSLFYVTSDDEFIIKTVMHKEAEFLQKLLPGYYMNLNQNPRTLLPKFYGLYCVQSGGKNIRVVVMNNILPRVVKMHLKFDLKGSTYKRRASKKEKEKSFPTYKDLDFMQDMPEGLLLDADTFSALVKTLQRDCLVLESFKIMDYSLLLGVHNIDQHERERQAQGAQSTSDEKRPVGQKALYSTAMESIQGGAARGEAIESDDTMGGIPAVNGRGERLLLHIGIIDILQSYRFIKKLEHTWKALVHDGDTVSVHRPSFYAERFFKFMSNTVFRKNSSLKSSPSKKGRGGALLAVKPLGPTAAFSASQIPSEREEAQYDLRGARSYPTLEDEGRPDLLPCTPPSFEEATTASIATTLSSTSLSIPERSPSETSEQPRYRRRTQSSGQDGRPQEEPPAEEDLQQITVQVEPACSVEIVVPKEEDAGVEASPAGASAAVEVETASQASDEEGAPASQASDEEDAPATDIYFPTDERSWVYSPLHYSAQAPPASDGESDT
# How it was run: as §1
# CSR1 = molecular target: T23, CSR1 (Homo sapiens, UniProt O95747)
# T23 construct: purchased DiscoveRx Corporation (KinomeScan panel)
# T23 sequence (O95747 whole entry): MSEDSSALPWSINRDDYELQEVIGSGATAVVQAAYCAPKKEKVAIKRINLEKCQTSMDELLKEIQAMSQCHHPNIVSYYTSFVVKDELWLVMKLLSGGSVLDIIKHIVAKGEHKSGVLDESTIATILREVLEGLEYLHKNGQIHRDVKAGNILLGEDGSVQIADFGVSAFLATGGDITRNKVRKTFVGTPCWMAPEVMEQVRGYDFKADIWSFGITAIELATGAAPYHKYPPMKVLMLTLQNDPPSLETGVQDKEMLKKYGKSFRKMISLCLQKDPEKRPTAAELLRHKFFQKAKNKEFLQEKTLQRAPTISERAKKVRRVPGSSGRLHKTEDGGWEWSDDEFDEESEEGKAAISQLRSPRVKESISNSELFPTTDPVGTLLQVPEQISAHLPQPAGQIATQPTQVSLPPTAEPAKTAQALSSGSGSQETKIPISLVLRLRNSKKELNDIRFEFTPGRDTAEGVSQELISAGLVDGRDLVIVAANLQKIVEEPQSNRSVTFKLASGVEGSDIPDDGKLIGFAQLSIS
# How it was run: as §1
# TAOK3 = molecular target: T24, TAOK3 (Homo sapiens, UniProt Q9H2K8)
# T24 construct: purchased DiscoveRx Corporation (KinomeScan)
# How it was run: as §1
# ASK1 = molecular target: T25, ASK1 (Homo sapiens, UniProt Q99683)
# T25 construct: purchased DiscoveRx Corporation (KinomeScan)
# How it was run: as §1
# MRCKA = molecular target: T26, MRCKA (Homo sapiens, UniProt Q5VT25)
# T26 construct: purchased DiscoveRx Corporation (KinomeScan)
# How it was run: as §1
# PFTAIRE2 = molecular target: T27, PFTAIRE2 (Homo sapiens, UniProt Q96Q40)
# T27 construct: purchased DiscoveRx Corporation (KinomeScan)
# How it was run: as §1
# TNK1 = molecular target: T28, TNK1 (Homo sapiens, UniProt Q13470)
# T28 construct: purchased DiscoveRx Corporation (KinomeScan)
# How it was run: as §1
# LKB1 = molecular target: T29, LKB1 (Homo sapiens, UniProt Q15831)
# T29 construct: purchased DiscoveRx Corporation (KinomeScan)
# How it was run: as §1
# [3] = molecular target: T30, ABL1(F317L)-phosphorylated (Homo sapiens, UniProt P00519, F317L)
# T30 construct: purchased DiscoveRx Corporation (KinomeScan)
# How it was run: as §1
# [4] = molecular target: T31, ABL1(F317I)-phosphorylated (Homo sapiens, UniProt P00519, F317I)
# T31 construct: purchased DiscoveRx Corporation (KinomeScan)
# How it was run: as §1
# DLK = molecular target: T32, DLK (Homo sapiens, UniProt Q12852)
# T32 construct: purchased DiscoveRx Corporation (KinomeScan)
# T32 sequence (Q12852 whole entry): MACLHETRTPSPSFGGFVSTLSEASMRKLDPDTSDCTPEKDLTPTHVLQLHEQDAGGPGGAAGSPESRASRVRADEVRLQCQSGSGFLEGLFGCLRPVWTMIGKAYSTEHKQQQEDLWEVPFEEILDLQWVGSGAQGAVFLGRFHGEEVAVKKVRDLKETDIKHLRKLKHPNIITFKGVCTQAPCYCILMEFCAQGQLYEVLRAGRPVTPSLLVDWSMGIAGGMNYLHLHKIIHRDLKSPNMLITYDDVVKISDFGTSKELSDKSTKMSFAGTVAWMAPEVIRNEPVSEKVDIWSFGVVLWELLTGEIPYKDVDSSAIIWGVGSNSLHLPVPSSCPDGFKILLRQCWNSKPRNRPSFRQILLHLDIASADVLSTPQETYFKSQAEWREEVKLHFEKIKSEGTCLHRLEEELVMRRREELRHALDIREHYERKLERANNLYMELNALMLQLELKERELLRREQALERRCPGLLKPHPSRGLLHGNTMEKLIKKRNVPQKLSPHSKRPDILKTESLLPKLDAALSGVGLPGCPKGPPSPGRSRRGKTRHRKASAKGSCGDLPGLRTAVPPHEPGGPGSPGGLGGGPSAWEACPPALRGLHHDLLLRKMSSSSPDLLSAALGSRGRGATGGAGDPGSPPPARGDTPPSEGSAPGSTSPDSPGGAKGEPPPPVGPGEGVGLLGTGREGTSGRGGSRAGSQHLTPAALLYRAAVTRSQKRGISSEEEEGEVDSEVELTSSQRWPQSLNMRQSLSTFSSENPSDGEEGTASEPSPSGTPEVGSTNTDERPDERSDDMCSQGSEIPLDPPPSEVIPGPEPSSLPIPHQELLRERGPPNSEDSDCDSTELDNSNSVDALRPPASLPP
# How it was run: as §1
# MST4 = molecular target: T33, MST4 (Homo sapiens, UniProt Q9P289)
# T33 construct: purchased DiscoveRx Corporation (KinomeScan)
# How it was run: as §1
# EGFR(L861Q) = molecular target: T34, EGFR(L861Q) (Homo sapiens, UniProt P00533, L861Q)
# T34 construct: purchased DiscoveRx Corporation (KinomeScan)
# How it was run: as §1
# MINK = molecular target: T35, MINK (Homo sapiens, UniProt Q8N4C8)
# T35 construct: purchased DiscoveRx Corporation (KinomeScan)
# How it was run: as §1
smiles,measurement,setting,value
"CCOP(=O)(CN1CCC(COc2cc3nccc(Oc4ccc(NC(=O)C5(C(=O)Nc6ccc(F)cc6)CC5)cc4F)c3cc2OC)CC1)OCC [Example 10, N1-[4-[[7-[[1-(diethoxyphosphorylmethyl)-4-piperidinyl]methoxyl]-6-methoxyl-4-quinolyl]oxyl]-3-fluorophenyl]-N1′-(4-fluorophenyl)cyclopropane-1,1-dicarboxamide]",% Ctrl@1000 nM,PRKCD,100 % Ctrl
same,% Ctrl@1000 nM,PDGFRB,0 % Ctrl
same,% Ctrl@1000 nM,P38-alpha,53 % Ctrl
same,% Ctrl@1000 nM,ULK2,100 % Ctrl
same,% Ctrl@1000 nM,AKT3,100 % Ctrl
same,% Ctrl@1000 nM,EPHB2,2.8 % Ctrl
same,% Ctrl@1000 nM,CDK8,76 % Ctrl
same,% Ctrl@1000 nM,PIK3CA (H1047Y),63 % Ctrl
same,% Ctrl@1000 nM,PIK3CA(M1043I),100 % Ctrl
same,% Ctrl@1000 nM,CAMK2D,94 % Ctrl
same,% Ctrl@1000 nM,PIP5K2C,38 % Ctrl
same,% Ctrl@1000 nM,[1],100 % Ctrl
same,% Ctrl@1000 nM,PCTK1,100 % Ctrl
same,% Ctrl@1000 nM,IGF1R,94 % Ctrl
same,% Ctrl@1000 nM,[2],83 % Ctrl
same,% Ctrl@1000 nM,ERBB3,98 % Ctrl
same,% Ctrl@1000 nM,MST2,100 % Ctrl
same,% Ctrl@1000 nM,P38-gamma,100 % Ctrl
same,% Ctrl@1000 nM,PIM3,67 % Ctrl
same,% Ctrl@1000 nM,ITK,34 % Ctrl
same,% Ctrl@1000 nM,ADCK3,67 % Ctrl
same,% Ctrl@1000 nM,PIP5K1C,100 % Ctrl
same,% Ctrl@1000 nM,CSR1,96 % Ctrl
same,% Ctrl@1000 nM,TAOK3,100 % Ctrl
same,% Ctrl@1000 nM,ASK1,100 % Ctrl
same,% Ctrl@1000 nM,MRCKA,100 % Ctrl
same,% Ctrl@1000 nM,PFTAIRE2,87 % Ctrl
same,% Ctrl@1000 nM,TNK1,30 % Ctrl
same,% Ctrl@1000 nM,LKB1,100 % Ctrl
same,% Ctrl@1000 nM,[3],69 % Ctrl
same,% Ctrl@1000 nM,[4],70 % Ctrl
same,% Ctrl@1000 nM,DLK,52 % Ctrl
same,% Ctrl@1000 nM,MST4,80 % Ctrl
same,% Ctrl@1000 nM,EGFR(L861Q),84 % Ctrl
same,% Ctrl@1000 nM,MINK,100 % Ctrl
